In ChEMBL document CHEMBL3124777, “Synthesis and biological evaluation of thiazoline derivatives as new antimicrobial and anticancer agents” (Eur J Med Chem, 2014) one finds IC50 and MIC data, which are given here for three compounds.

≈ marks a conversion by molar mass, not a printed value.

One test deals with NIH3T3. As to the kind of experiment: Cytotoxicity against mouse NIH/3T3 cells after 24 hrs by MTT assay. The test is classed as cell-based. The following applies: NIH3T3, 24 h.
Consider `Cc1nnc(SCC(=O)N/N=c2/scc(-c3ccc(Br)cc3)n2-c2ccccc2)s1`, for which 55 µg/mL (≈ 106 µM) corresponded to half-maximal inhibition (IC50).

For the compound `Cc1nnc(SCC(=O)N/N=c2/scc(-c3ccc(C#N)cc3)n2-c2ccccc2)s1`, the IC50 (as a rule, the concentration that gives 50% inhibition) was less than 3.9 µg/mL.

For the compound `Cn1cnnc1SCC(=O)N/N=c1/scc(-c2ccc(Br)cc2)n1-c1ccccc1`, 58.3 µg/mL (≈ 116 µM) corresponded to half-maximal inhibition (IC50).

The next test relates to Candida albicans. As to the kind of experiment: Antimicrobial activity against Candida albicans ATCC 22019 after 18 to 24 hrs by microbroth dilution method. The test is classed as functional.
Settings: not given
In the case of `Cc1nnc(SCC(=O)N/N=c2/scc(-c3ccc(Br)cc3)n2-c2ccccc2)s1`, the MIC – broadly, the least concentration at which growth counts as inhibited – was determined as 250 µg/mL (≈ 482 µM).

As for `Cc1nnc(SCC(=O)N/N=c2/scc(-c3ccc(C#N)cc3)n2-c2ccccc2)s1`, the MIC worked out at 250 µg/mL (≈ 538 µM).

With `Cn1cnnc1SCC(=O)N/N=c1/scc(-c2ccc(Br)cc2)n1-c1ccccc1`, the MIC was determined as 250 µg/mL (≈ 499 µM).

The next test deals with Fusarium culmorum. As to the kind of experiment: Antimicrobial activity against wild type Fusarium culmorum after 48 to 72 hrs by microbroth dilution method. Type of test: functional.
Settings: not given
Turning to `Cc1nnc(SCC(=O)N/N=c2/scc(-c3ccc(Br)cc3)n2-c2ccccc2)s1`, inhibition of growth (MIC) required 250 µg/mL (≈ 482 µM).

Regarding `Cc1nnc(SCC(=O)N/N=c2/scc(-c3ccc(C#N)cc3)n2-c2ccccc2)s1`, the MIC is 250 µg/mL (≈ 538 µM).

On to `Cn1cnnc1SCC(=O)N/N=c1/scc(-c2ccc(Br)cc2)n1-c1ccccc1`, for which the MIC turned out to be 250 µg/mL (≈ 499 µM).

A further test relates to Fusarium verticillioides. As to the kind of experiment: Antimicrobial activity against Fusarium moniliforme NRRL 1866 after 48 to 72 hrs by microbroth dilution method. Type of test: functional.
Settings: not given
Background: Dilution methods test growth across graded concentrations, often in twofold steps.
The compound `Cc1nnc(SCC(=O)N/N=c2/scc(-c3ccc(Br)cc3)n2-c2ccccc2)s1` yielded an MIC of 250 µg/mL (≈ 482 µM).

With `Cc1nnc(SCC(=O)N/N=c2/scc(-c3ccc(C#N)cc3)n2-c2ccccc2)s1`, the MIC worked out at 250 µg/mL (≈ 538 µM).

`Cn1cnnc1SCC(=O)N/N=c1/scc(-c2ccc(Br)cc2)n1-c1ccccc1` showed an MIC of 250 µg/mL (≈ 499 µM).

In the next test the test system is Fusarium solani. Briefly: Antimicrobial activity against Fusarium solani NRRL 13414 after 48 to 72 hrs by microbroth dilution method. Type of test: functional.
Settings: not given
For `Cc1nnc(SCC(=O)N/N=c2/scc(-c3ccc(Br)cc3)n2-c2ccccc2)s1`, inhibition of growth (MIC) required 250 µg/mL (≈ 482 µM).

The compound `Cc1nnc(SCC(=O)N/N=c2/scc(-c3ccc(C#N)cc3)n2-c2ccccc2)s1` yielded an MIC of 250 µg/mL (≈ 538 µM).

`Cn1cnnc1SCC(=O)N/N=c1/scc(-c2ccc(Br)cc2)n1-c1ccccc1`: the MIC amounted to 250 µg/mL (≈ 499 µM).

For a further test, the system named is Aspergillus ochraceus. Briefly: Antimicrobial activity against Aspergillus ochraceus NRRL 3174 after 48 to 72 hrs by microbroth dilution method. Type of test: functional.
Settings: not given
Compound `Cc1nnc(SCC(=O)N/N=c2/scc(-c3ccc(Br)cc3)n2-c2ccccc2)s1` registered an MIC of 250 µg/mL (≈ 482 µM).

Compound `Cc1nnc(SCC(=O)N/N=c2/scc(-c3ccc(C#N)cc3)n2-c2ccccc2)s1` displayed an MIC of 250 µg/mL (≈ 538 µM).

Regarding `Cn1cnnc1SCC(=O)N/N=c1/scc(-c2ccc(Br)cc2)n1-c1ccccc1`, the MIC worked out at 250 µg/mL (≈ 499 µM).

Another test deals with Trichoderma harzianum. Briefly: Antimicrobial activity against Trichoderma harzianum NRRL 20565 after 48 to 72 hrs by microbroth dilution method.
Settings: not given
The test is classed as functional.
`Cc1nnc(SCC(=O)N/N=c2/scc(-c3ccc(Br)cc3)n2-c2ccccc2)s1` showed an MIC of 125 µg/mL (≈ 241 µM).

In the case of `Cc1nnc(SCC(=O)N/N=c2/scc(-c3ccc(C#N)cc3)n2-c2ccccc2)s1`, the lowest concentration to inhibit growth (MIC) was 125 µg/mL (≈ 269 µM).

`Cn1cnnc1SCC(=O)N/N=c1/scc(-c2ccc(Br)cc2)n1-c1ccccc1` registered an MIC of 125 µg/mL (≈ 249 µM).

The next test deals with Penicillium chrysogenum. As to the kind of experiment: Antimicrobial activity against Penicillium chrysogenum NRRL 1951 after 48 to 72 hrs by microbroth dilution method. Type of test: functional.
Settings: not given
Compound `Cc1nnc(SCC(=O)N/N=c2/scc(-c3ccc(Br)cc3)n2-c2ccccc2)s1` came in with an MIC of 250 µg/mL (≈ 482 µM).

Compound `Cc1nnc(SCC(=O)N/N=c2/scc(-c3ccc(C#N)cc3)n2-c2ccccc2)s1` had an MIC of 250 µg/mL (≈ 538 µM).

Regarding `Cn1cnnc1SCC(=O)N/N=c1/scc(-c2ccc(Br)cc2)n1-c1ccccc1`, the MIC is 250 µg/mL (≈ 499 µM).

The next test relates to Aspergillus parasiticus. As to the kind of experiment: Antimicrobial activity against Aspergillus parasiticus NRRL 465 after 48 to 72 hrs by microbroth dilution method. The test is classed as functional.
Settings: not given
For `Cc1nnc(SCC(=O)N/N=c2/scc(-c3ccc(Br)cc3)n2-c2ccccc2)s1`, inhibition of growth (MIC) required 250 µg/mL (≈ 482 µM).

In turn, `Cc1nnc(SCC(=O)N/N=c2/scc(-c3ccc(C#N)cc3)n2-c2ccccc2)s1` gave a minimum inhibitory concentration (MIC) of 250 µg/mL (≈ 538 µM).

In turn, `Cn1cnnc1SCC(=O)N/N=c1/scc(-c2ccc(Br)cc2)n1-c1ccccc1` came in with an MIC of 250 µg/mL (≈ 499 µM).

For a further test, the system named is Bacillus subtilis. As to the kind of experiment: Antimicrobial activity against Bacillus subtilis NRS-744 after 18 to 24 hrs by microbroth dilution method. Type of test: functional.
Settings: not given
On to `Cc1nnc(SCC(=O)N/N=c2/scc(-c3ccc(Br)cc3)n2-c2ccccc2)s1`, for which the MIC was 500 µg/mL (≈ 964 µM).

In the case of `Cc1nnc(SCC(=O)N/N=c2/scc(-c3ccc(C#N)cc3)n2-c2ccccc2)s1`, the lowest concentration to inhibit growth (MIC) was 250 µg/mL (≈ 538 µM).

With `Cn1cnnc1SCC(=O)N/N=c1/scc(-c2ccc(Br)cc2)n1-c1ccccc1`, the MIC is 250 µg/mL (≈ 499 µM).

For the next test, the system named is Micrococcus luteus. As to the kind of experiment: Antimicrobial activity against Micrococcus luteus NRLL B-4375 after 18 to 24 hrs by microbroth dilution method. Type of test: functional.
Settings: not given
`Cc1nnc(SCC(=O)N/N=c2/scc(-c3ccc(Br)cc3)n2-c2ccccc2)s1`: inhibition of growth (MIC) required 250 µg/mL (≈ 482 µM).

Consider `Cc1nnc(SCC(=O)N/N=c2/scc(-c3ccc(C#N)cc3)n2-c2ccccc2)s1`, for which the MIC was found to be 250 µg/mL (≈ 538 µM).

Turning to `Cn1cnnc1SCC(=O)N/N=c1/scc(-c2ccc(Br)cc2)n1-c1ccccc1`, the MIC was determined as 250 µg/mL (≈ 499 µM).

The subject of another test is Pseudomonas aeruginosa. As to the kind of experiment: Antimicrobial activity against Pseudomonas aeruginosa […] after 18 to 24 hrs by microbroth dilution method. The test is classed as functional.
Settings: not given
`Cc1nnc(SCC(=O)N/N=c2/scc(-c3ccc(Br)cc3)n2-c2ccccc2)s1`: the MIC stood at 250 µg/mL (≈ 482 µM).

As to `Cc1nnc(SCC(=O)N/N=c2/scc(-c3ccc(C#N)cc3)n2-c2ccccc2)s1`, the lowest concentration to inhibit growth (MIC) was 250 µg/mL (≈ 538 µM).

As to `Cn1cnnc1SCC(=O)N/N=c1/scc(-c2ccc(Br)cc2)n1-c1ccccc1`, inhibition of growth (MIC) required 250 µg/mL (≈ 499 µM).

Another test relates to Escherichia coli. As to the kind of experiment: Antimicrobial activity against Escherichia coli ATCC 25922 after 18 to 24 hrs by microbroth dilution method. The test is classed as functional.
Settings: not given
With `Cc1nnc(SCC(=O)N/N=c2/scc(-c3ccc(Br)cc3)n2-c2ccccc2)s1`, inhibition of growth (MIC) required 250 µg/mL (≈ 482 µM).

As for `Cc1nnc(SCC(=O)N/N=c2/scc(-c3ccc(C#N)cc3)n2-c2ccccc2)s1`, the MIC came to 250 µg/mL (≈ 538 µM).

`Cn1cnnc1SCC(=O)N/N=c1/scc(-c2ccc(Br)cc2)n1-c1ccccc1`: the MIC was 250 µg/mL (≈ 499 µM).

Another test relates to Listeria monocytogenes. Briefly: Antimicrobial activity against Listeria monocytogenes ATCC 7644 after 18 to 24 hrs by microbroth dilution method.
Settings: not given
Type of test: functional.
For the compound `Cc1nnc(SCC(=O)N/N=c2/scc(-c3ccc(Br)cc3)n2-c2ccccc2)s1`, 250 µg/mL (≈ 482 µM) was the least that counted as inhibitory (MIC).

As for `Cc1nnc(SCC(=O)N/N=c2/scc(-c3ccc(C#N)cc3)n2-c2ccccc2)s1`, inhibition of growth (MIC) required 250 µg/mL (≈ 538 µM).

Compound `Cn1cnnc1SCC(=O)N/N=c1/scc(-c2ccc(Br)cc2)n1-c1ccccc1` showed an MIC of 250 µg/mL (≈ 499 µM).

A further test concerns Staphylococcus aureus. Briefly: Antimicrobial activity against Staphylococcus aureus NRRL B-767 after 18 to 24 hrs by microbroth dilution method. Type of test: functional.
Settings: not given
Consider `Cc1nnc(SCC(=O)N/N=c2/scc(-c3ccc(Br)cc3)n2-c2ccccc2)s1`, for which the MIC was 500 µg/mL (≈ 964 µM).

Consider `Cc1nnc(SCC(=O)N/N=c2/scc(-c3ccc(C#N)cc3)n2-c2ccccc2)s1`, for which it took 250 µg/mL (≈ 538 µM) to inhibit growth (MIC).

Compound `Cn1cnnc1SCC(=O)N/N=c1/scc(-c2ccc(Br)cc2)n1-c1ccccc1` displayed an MIC of 250 µg/mL (≈ 499 µM).
